Molecules are shown by their SMILES.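 Where inhibition never reached the appropriate level, the endpoint shown equals the highest concentration tested. Otherwise, values were interpolated linearly from a five-concentration, 48-hour dose response in 96-well plates. Abbreviation: GI50, concentration required for 50% inhibition of growth.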 Active and inactive are the calls of the source. No stated cut-off is given here; in the data, active = GI50 up to about 1.1 µM and inactive = higher.

Common to all, as to assay: growth of human tumour cells (NCI), 48 h
For assay [1], the system named is HOP-62.
For assay [2], the system named is SNB-19.
The test system of assay [3] is TK-10.
Assay [4] concerns SF-268.
Assay [5] has as its system HOP-92.
Assay [6] concerns MCF7.
Assay [7] relates to NCI-H226.
In assay [8] the test system is M14.
Assay [9] has as its system IGROV-1.
Assay [10] relates to OVCAR-5.
In assay [11] the test system is MOLT-4.
Assay [12] relates to SF-539.
Assay [13] has as its system HCT-116.
For assay [14], the system named is CCRF-CEM.
In assay [15] the test system is EKVX.
Assay [16] deals with ACHN.
In assay [17] the test system is PC-3.
The test system of assay [18] is HCT-15.
Assay [19] deals with SR.
The test system of assay [20] is NCI-H460.

For `Cc1c2cccc-2c(OCCO)cc2c3ccccc3n(C)c12`, the GI50 in [1] is 2.56 µM (inactive); in assay [2], 5.09 µM (inactive); in assay [3], 10.7 µM (inactive); in assay [4] it was 4.02 µM (inactive); in [5], 1.77 µM (inactive); in [6], 3.65 µM (inactive). Moreover, the GI50 in assay [7] is 5.58 µM (inactive); in assay [8], 3.44 µM (inactive); in assay [9], 1.49 µM (inactive); in assay [10] it was 4.83 µM (inactive); in assay [11] it was 3.86 µM (inactive); in assay [12], 2.54 µM (inactive). The GI50 was 3.16 µM (inactive) in assay [13]; 1.92 µM (inactive) in assay [14]; 2.63 µM (inactive) in assay [15]; 5.12 µM (inactive) in assay [16]; 3.18 µM (inactive) in [17]; 6.11 µM in [18]. For the same molecule, the GI50 in assay [19] was 2.34 µM (inactive); in [20], 3.73 µM (inactive).
With `O=C1/C(=C\c2ccc(Cl)cc2Cl)Sc2scc(-c3cccc([N+](=O)[O-])c3)[n+]21`, the GI50 is 16.5 µM (inactive) in assay [1]; 12.8 µM (inactive) in assay [2]; 4.07 µM (inactive) in assay [3]; 9.1 µM (inactive) in [4]; 5.89 µM (inactive) in assay [5]; 3.98 µM (inactive) in assay [6]. Also, the GI50 in assay [7] is 13.5 µM (inactive); in assay [8] it was 6.04 µM (inactive); in [9], 6.31 µM (inactive); in assay [10] it was 15.5 µM (inactive); in assay [11] it was 1.45 µM (inactive); in assay [12], 1.81 µM (inactive). For the same molecule, the GI50 in assay [13] was 5.2 µM (inactive); in assay [14], 0.291 µM (active); in assay [15] it was 7.57 µM (inactive); in assay [16], 3.33 µM (inactive); in assay [17] it was 15.6 µM (inactive); in assay [18] it was 1.81 µM. In addition, the GI50 in assay [19] was 2.58 µM (inactive); in assay [20] it was 13.1 µM (inactive).
For `O=[N+]([O-])/C(C(Cl)=C(Cl)Cl)=C(\SCc1ccccc1)N1CCCCC1`, the GI50 in assay [1] was 38.4 µM (inactive); in assay [2], 56.2 µM (inactive); in assay [3] it was 38.4 µM (inactive); in assay [4], 23.7 µM (inactive); in assay [5], 0.0879 µM (active); in [6] it was 12.6 µM (inactive). For the same molecule, the GI50 was 19.7 µM (inactive) in assay [7]; 19.3 µM (inactive) in assay [8]; 24.6 µM (inactive) in assay [9]; 20.4 µM (inactive) in [10]; 10.7 µM (inactive) in assay [11]; 21.5 µM (inactive) in assay [12]. Moreover, the GI50 was 16.3 µM (inactive) in [13]; 8.34 µM (inactive) in assay [14]; 70.3 µM (inactive) in assay [15]; 17.4 µM (inactive) in assay [16]; 20 µM (inactive) in assay [17]; 19.7 µM in [18]. Moreover, the GI50 was 8.34 µM (inactive) in assay [19] and 23.8 µM (inactive) in [20].
`Cc1ccc(S(=O)(=O)NC2C(=O)c3ccccc3C(=O)C2n2cnc3ccccc32)cc1` (stereo not given): the GI50 was 50.4 µM (inactive) in assay [1]; 27.4 µM (inactive) in assay [2]; 17.7 µM (inactive) in [3]; 40 µM (inactive) in assay [4]; 14.4 µM (inactive) in assay [5]; 31.6 µM (inactive) in [6]. The GI50 in assay [7] is 42.8 µM (inactive); in assay [8] it was 25.3 µM (inactive); in assay [9], 16.8 µM (inactive); in assay [10] it was > 100 µM (inactive); in assay [11] it was 19.2 µM (inactive); in assay [12] it was 24.7 µM (inactive). Also, the GI50 in assay [13] was 27.4 µM (inactive); in [14] it was 53.1 µM (inactive); in [15], 34.3 µM (inactive); in [16], 24.3 µM (inactive); in [17] it was 21.2 µM (inactive); in assay [18], 25.6 µM. The results for the GI50 in [19] and in [20] were 34.4 µM (inactive) and 19.5 µM (inactive), respectively.
As for `CC(=O)OCc1ccc2c(c1)C(O)NC(=O)O2` (stereo not given), the GI50 in [1] is > 100 µM (inactive); in assay [2] it was > 100 µM (inactive); in assay [3], > 100 µM (inactive); in [4], > 100 µM (inactive); in assay [5], > 100 µM (inactive); in [6], 78.9 µM (inactive). The GI50 in assay [7] is 96.6 µM (inactive); in assay [8] it was > 100 µM (inactive); in assay [9] it was > 100 µM (inactive); in assay [10] it was > 100 µM (inactive); in assay [11], 12.8 µM (inactive); in assay [12], > 100 µM (inactive). Also, the GI50 was 52.8 µM (inactive) in assay [13]; 12.4 µM (inactive) in assay [14]; > 100 µM (inactive) in assay [15]; > 100 µM (inactive) in assay [16]; > 100 µM (inactive) in [17]; 44.3 µM in assay [18]. The GI50 in [19] is 10.4 µM (inactive); in [20] it was > 100 µM (inactive).
Take `CC(=O)O[C@H]1C(=O)[C@@]2(C)[C@H]([C@H](OC(=O)c3ccccc3)[C@]3(O)C[C@H](OC(=O)[C@H](O)[C@@H](NC(=O)c4ccccc4)c4ccccc4C)C(C)=C1C3(C)C)[C@]1(OC(C)=O)CO[C@@H]1C[C@@H]2O`: the GI50 was 0.326 µM (active) in [1]; 1.27 µM (inactive) in assay [2]; 2.71 µM (inactive) in assay [3]; 1.2 µM (inactive) in [4]; 2.13 µM (inactive) in assay [5]; 0.113 µM (active) in assay [6]. The GI50 in assay [7] was 1.71 µM (inactive); in assay [8], 0.55 µM (active); in assay [9] it was 0.449 µM (active); in [10], 0.843 µM (active); in assay [11], 0.411 µM (active); in assay [12], 0.433 µM (active). The GI50 in [13] was 0.177 µM (active); in assay [14], 0.376 µM (active); in [15] it was 7.4 µM (inactive); in [16] it was 2.44 µM (inactive); in assay [17], 0.258 µM (active); in assay [18], 6.38 µM. Also, the GI50 in assay [19] is 0.136 µM (active); in assay [20], 0.811 µM (active).
As for `Cc1c2cc[n+](C)cc2c(C)c2c1oc1ccccc12`, the GI50 in assay [1] was 2.06 µM (inactive); in assay [2], 0.893 µM (active); in assay [3] it was 31.4 µM (inactive); in assay [4], 0.406 µM (active); in assay [5] it was 6.5 µM (inactive); in [6] it was 6.37 µM (inactive). Further, the GI50 is 2.19 µM (inactive) in [7]; 14.6 µM (inactive) in assay [8]; 4.74 µM (inactive) in assay [9]; 15.6 µM (inactive) in assay [10]; 2.74 µM (inactive) in assay [11]; 2.24 µM (inactive) in assay [12]. Also, the GI50 in [13] is 6.43 µM (inactive); in assay [14], 3.18 µM (inactive); in [15], 5.5 µM (inactive); in [16] it was 39.6 µM (inactive); in assay [17] it was 6.38 µM (inactive); in [18], over 87.3 µM. The GI50 in [19] is 4.85 µM (inactive); in [20] it was 3.24 µM (inactive).

(Values after ChEMBL document CHEMBL1201862, “PubChem BioAssay data set” (2004).)
